From US20240287477A1, “CATALASE MIMETIC PEPTIDES” (Northwestern University, priority 2023, published 2024)
Square brackets hold non-standard residues; d marks the D form. Ends that are not written are not given here.

Legend:
Type in all cases: cell-based
MCF-10AER/cSrc = experiment: Transformation (spiked shape) of cells after 4-hydroxy-tamoxifen, phase contrast imaging; details: after 4-OHT (1 μM); either in single dose or every day
Method: (§1) FIG. 1A. REDOX effects promoted by peptidyl di-copper complex. (A) Oxidized (λex=[…]) and reduced (λex=[…]) roGFP2 signals 30 minutes after exposure to the metallocomplex (Day 1) and at the final of the experiment (Day 5) were measured and the oxidized/reduced ratio was obtained using ImageJ (shown as histogram). FIG. 1B. Representative images of MCF-10AER/cSrc transformation after treatment with 4-hydroxy-tamoxifen (1 μM) registered by Lionheart (phase contrast). FIG. 1C. Western blot analysis of E-Cadherin (E-Cad), Fibronectin (FN1), and Vimentin (Vim) in MCF-10AER/cSrc transformed cells (5 days after 4-OHT treatment). CATm1-peptidyl di-copper complex, as previously reported, DNK01-peptidyl di-copper complex with D-amino acids, sd-single dose, cd-daily doses.
Another important observation was the delayed transformation of the cells in the system. After exposure to 4-OHT, cells acquired a spiked shape as soon as day 1 to day 2 (FIG. 1B). This process was delayed for two days when the cells were exposed to Cu^2+-CATm1 or Cu^2+-DNK01 either in single dose or every day.

[1] = test system: MCF-10A ER/cSrc/NLS-Orp1-roGFP2 cells; experiment: Nuclear ROS by NLS-roGFP2-Orp1 oxidized/reduced ratio after 4-OHT exposure; details: peptide 250 μM, CuSO4 500 μM; for ROS levels: day 5
Method: as §1
Lyophilized peptides were resuspended in MOPS buffer (30 mM, pH 7.5) to a concentration of 5 mM; a 50 mM copper solution was prepared in the same buffer. Both solutions were mixed in a 1:2 (peptide:copper) concentration 30 minutes before applying them to the cell culture. The final concentration of the complex in the cell culture was peptide at 250 μM and CuSO4 at 500 μM. The culture was monitored by measuring the ratio I(405/525)/I(488/525) given by the NLS-roGFP2-Orp1.
Exposure to 4-hydroxytamoxifen (4-OHT) transforms MCF-10A ER/cSrc/NLS-Orp1-roGFP2 cells into a tumorous cell line due to the oxidation of the nuclear compartment. Experiments were conducted by measuring the nuclear ROS in these cells. Probe oxidation status was monitored for 5 days after exposure to 4-OHT (FIG. 1A). […] It was not sufficient to keep the ROS levels as low as on day 1. This was due to a disruption of the complex and accumulation of free copper in the media.

E-Cadherin (E-Cad) = experiment: Western blot of epithelial marker E-cadherin in transformed cells, day 5; details: cells exposed only to 4-OHT
Method: as §1
(§2) Experiments were conducted during development of embodiments herein to measure the expression of EMT markers in this system at the end of the experiment (day 5). […] But in cells exposed only to 4-OHT, the levels dropped to almost 50% in comparison to the control cells. In the same FIGURE, the mesenchymal markers Vimentin and Fibronectin were also probed by western blot. […] Transformed cells, 4-OHT treated, expressed 3 times compared to control, and cells also treated with peptides in single doses.

Fibronectin (FN1) = experiment: Western blot of mesenchymal marker Fibronectin in transformed cells, day 5; details: 4-OHT treated only
Method: as §1, §2

Substance | delay of transformation of the cells (spiked shape) (MCF-10AER/cSrc) | levels of nuclear oxidants ([1]; day 1, right after exposure (30 minutes), 4-OHT treated cells) | ROS levels ([1]; presented everyday with fresh media) | ROS levels ([1]; single dose in day 1) | E-cadherin levels in comparison to the control cells (E-Cadherin (E-Cad)) [%] | Fibronectin expression compared to control (Fibronectin (FN1)) [times]
PHYKHRLH (also: di-copper complex) [CATm1, short peptidyl di-copper complex developed to mimic catalase, as previously reported] | two | lower levels of nuclear oxidants | keep the ROS in lower levels | ROS levels increase |  | 
dPdHdYdKdHdRdLdH ([dP][dH][dY][dK][dH][dR][dL][dH]; also: di-copper complex) [DNK01, peptidyl di-copper complex with D-amino acids] | two |  |  |  |  | 
4-hydroxytamoxifen [4-OHT] |  |  |  |  | ~50 | 3
